Literature values as cited in patent US9265822B2 (priority 2009, dated 2016).

Tested on: American isolates of H3N2

SMILES | measured resistance
CC(N)C12CC3CC(CC(C3)C1)C2 (centres unmarked) [rimantadine] | 91%
NC12CC3CC(CC(C3)C1)C2 [amantadine] | 91%
